Experimental data: patent US20260250426A1, “AMPHIPHILIC CELLULOSE DERIVATIVES, METHODS OF MAKING, AND USES THEREOF” (Virginia Tech Intellectual Properties, Inc., priority 2022, published 2026)

Test: Polymer solubility in pH 6.8 buffer (visual inspection)
Procedure: A general workflow for evaluating cellulose ester derivatives for ASD applications can include evaluating polymer solubility, nucleation time, and surface tension. Polymer solubility was evaluated by examining solubility in pH 6.8 buffer and organic solvents. Nucleation induction time was measured using 9 different polymers and 3 model therapeutic compounds. Surface tension was determined by correlating surface tension and induction time.

**Q.** Which “Water solubility (in words)” value does the source give for CA320S Glutarate [CA320GA] here?
**A.** water-soluble
